Measured values: patent US8163770B2, “Benzoxathiin derivative” (MSD. K. K., priority 2005, dated 2012)
Where two headings read alike, the source gives them in different places.

Columns and labels:
histamine-H3 receptor = molecular target: T1, histamine-H3 receptor (Rattus norvegicus, UniProt Q9QYN8); assay: Test for antagonistic effect to water-drinking action induced by histamine-H3 receptor selective agonist, R-α-methylhistamine; type: in vivo; conditions: 10 mg/kg oral, 2 hours before R-α-methylhistamine, water drunk for 1 hour
T1 construct: from tissue; host or cells: living male rat
T1 sequence (Q9QYN8 whole entry): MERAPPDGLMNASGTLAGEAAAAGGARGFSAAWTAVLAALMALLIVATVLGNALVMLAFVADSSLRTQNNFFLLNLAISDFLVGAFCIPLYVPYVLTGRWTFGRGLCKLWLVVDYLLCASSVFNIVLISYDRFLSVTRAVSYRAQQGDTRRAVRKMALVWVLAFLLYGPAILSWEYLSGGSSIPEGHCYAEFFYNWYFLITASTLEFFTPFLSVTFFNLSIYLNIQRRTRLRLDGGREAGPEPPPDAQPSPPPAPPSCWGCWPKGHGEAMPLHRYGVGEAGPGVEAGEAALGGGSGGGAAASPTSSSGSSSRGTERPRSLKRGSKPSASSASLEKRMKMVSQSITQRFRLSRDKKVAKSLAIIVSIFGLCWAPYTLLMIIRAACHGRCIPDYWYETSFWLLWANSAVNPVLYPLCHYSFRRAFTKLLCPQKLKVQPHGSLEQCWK
Method: Under anesthesia with ketamine xylazine (74 and 11 mg/kg intraabdominal single administration), a brain stereotaxic device was set in the third ventricle of a male DS rat (7 to 10-week age, 200 to 300 g), and a chronic guide cannula (26 gauge, length 11 mm) was inserted into it and fixed with a dental resin. The position of the tip of the guide cannula is at 2.2 mm after the bregma on the midline, and at a depth of 8 mm from the surface of the skull. After a restoration term of about 1 week, R-α-methylhistamine (0.3 μg/1 μL/head, 30% propylene glycol liquid) was administered into the third ventricle. The test compound suspended in an aqueous 0.5% methyl cellulose solution was orally administered to the rat before 2 hours before the R-α-methylhistamine administration; and after the R-α-methylhistamine administration, the amount of water drunk by the rat for 1 hour was measured.

[1] = Test for brain/cerebrospinal fluid transition; type: in vivo; conditions: SD male rat, 2 hours after oral administration (10 mg/kg)
Method: The test compound was orally or intravenously administered to an SD male rat (7 to 10-week age, 200 to 400 g), and under anesthesia with ether for a predetermined period of time, the whole blood was collected from it through the abdominal aorta thereof using a heparin-processed syringe. Next, the head skin was cut, and a dental 30 G needle was stuck into the cervical spine to run through the subarachnoid cavity. Via a tube connected to the dental 30 G needle, from 50 to 100 μL of the cerebrospinal fluid was collected in a 1-mL syringe, and then the brain was taken out. The blood sample was centrifuged (4° C., 6000 revolutions, 10 minutes), and the resulting plasma was stirred with ethanol (containing an internal standard substance) in an amount of three times thereof added to it. The brain sample was homogenized with 2 mL of water added thereto; and a part of it was taken out and stirred with ethanol (containing an internal standard substance) in an amount of three times thereof added to it. The cerebrospinal fluid was stirred with ethanol (containing an internal standard substance) in an amount of three times thereof added to it. The above samples were left at −20° C. for 20 minutes, then centrifuged (4° C., 12,000 g, 10 minutes), and the supernatant was analyzed through LC/MS/MS. According to a relative calibration curve method, the compound concentration in the plasma, in the brain and in the cerebrospinal fluid was determined.

inhibition of the increase in the water drinking induced by R-α-methylhistamine in the third ventricle (histamine-H3 receptor): significantly inhibited
concentration in the brain [1]: 6.96 nmol/g
concentration at 2 h ([1]; cerebrospinal fluid, read-out: concentration in the cerebrospinal fluid): 174 nM
concentration at 2 h ([1]; plasma, read-out: concentration in the plasma): 980 nM
Compound: C[C@H]1[C@H](c2ccc(OCCCN3CCCC3)cc2)Oc2ccccc2S1(=O)=O (single isomer, unassigned) [(2S*,3S*)-2,3-dihydro-3-methyl-2-[4-[3-(1-pyrrolidinyl)propoxy]phenyl]-1,4-benzoxathiin-4,4-dioxide]
